Values quoted from earlier work in patent US12310930B2 (YS PHARMTECH, priority 2016, dated 2025).
Read-outs that look alike come from different tables or passages of the source.

association constant (K) (pH 3.5, aqueous solution): 488 M⁻¹
association constant (K) (pH 5.5, aqueous solution): 111 M⁻¹
SMILES: CNCC(O)c1ccc(O)c(O)c1 (single isomer, unassigned; (-)) [epinephrine, (−)-3,4-Dihydroxy-α-[(methylamino)methyl]benzyl alcohol]
